Results: PubChem BioAssay (NCI)
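Following 48 hours of exposure in 96-well plates, responses at five concentrations were used to interpolate endpoints linearly. GI50 marks 50% less growth. At the TGI there is no net growth.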

What was measured:
Assay in all cases: growth of human tumour cells (NCI), 48 h
786-0 renal = tested on: 786-0 renal
A498 renal = tested on: A498 renal
A549 NSCLC = tested on: A549 NSCLC
ACHN renal = tested on: ACHN renal
BT-549 breast = tested on: BT-549 breast
CAKI-1 renal = tested on: CAKI-1 renal
CCRF-CEM leukemia = tested on: CCRF-CEM leukemia
COLO 205 colon = tested on: COLO 205 colon
DU-145 prostate = tested on: DU-145 prostate
EKVX NSCLC = tested on: EKVX NSCLC
HCC-2998 colon = tested on: HCC-2998 colon
HCT-116 colon = tested on: HCT-116 colon
HCT-15 colon = tested on: HCT-15 colon
HL-60(TB) leukemia = tested on: HL-60(TB) leukemia
HOP-62 NSCLC = tested on: HOP-62 NSCLC
HOP-92 NSCLC = tested on: HOP-92 NSCLC
HS 578T breast = tested on: HS 578T breast
HT29 colon = tested on: HT29 colon
IGROV1 ovarian = tested on: IGROV1 ovarian
K-562 leukemia = tested on: K-562 leukemia
KM12 colon = tested on: KM12 colon
LOX IMVI melanoma = tested on: LOX IMVI melanoma
M14 melanoma = tested on: M14 melanoma
MALME-3M melanoma = tested on: MALME-3M melanoma
MCF7 breast = tested on: MCF7 breast
MDA-MB-231 breast = tested on: MDA-MB-231 breast
MDA-MB-435 = tested on: MDA-MB-435
MOLT-4 leukemia = tested on: MOLT-4 leukemia
NCI-H226 lung = tested on: NCI-H226 lung
NCI-H23 lung = tested on: NCI-H23 lung
NCI-H460 lung = tested on: NCI-H460 lung
NCI-H522 lung = tested on: NCI-H522 lung
NCI/ADR-RES ovarian = tested on: NCI/ADR-RES ovarian
OVCAR-3 ovarian = tested on: OVCAR-3 ovarian
OVCAR-4 ovarian = tested on: OVCAR-4 ovarian
OVCAR-5 ovarian = tested on: OVCAR-5 ovarian
OVCAR-8 ovarian = tested on: OVCAR-8 ovarian
PC-3 prostate = tested on: PC-3 prostate
RPMI-8226 leukemia = tested on: RPMI-8226 leukemia
RXF 393 renal = tested on: RXF 393 renal
SF-268 CNS = tested on: SF-268 CNS
SF-295 CNS = tested on: SF-295 CNS
SF-539 CNS = tested on: SF-539 CNS
SK-MEL-2 melanoma = tested on: SK-MEL-2 melanoma
SK-MEL-28 melanoma = tested on: SK-MEL-28 melanoma
SK-MEL-5 melanoma = tested on: SK-MEL-5 melanoma
SK-OV-3 ovarian = tested on: SK-OV-3 ovarian
SN12C renal = tested on: SN12C renal
SNB-19 CNS = tested on: SNB-19 CNS
SNB-75 CNS = tested on: SNB-75 CNS
SR leukemia = tested on: SR leukemia
SW-620 colon = tested on: SW-620 colon
T-47D breast = tested on: T-47D breast
U251 CNS = tested on: U251 CNS
UACC-257 melanoma = tested on: UACC-257 melanoma
UACC-62 melanoma = tested on: UACC-62 melanoma
UO-31 renal = tested on: UO-31 renal

O=C(O)COc1ccc(OCC(=O)O)cc1 was tested, and the GI50 (786-0 renal) was 0.456 µM, the TGI (786-0 renal) was 3.62 µM and the GI50 (A498 renal) was 1.06 µM. For the same compound, the TGI (A498 renal) was 4.87 µM, the GI50 (A549 NSCLC) was 0.432 µM and the TGI (A549 NSCLC) was 2.16 µM. For the same compound, the GI50 (ACHN renal) was 0.522 µM, the TGI (ACHN renal) was 4.02 µM and the GI50 (BT-549 breast) was 1.47 µM. It also gave a TGI (BT-549 breast) of 11.6 µM, a GI50 (CAKI-1 renal) of 22.2 µM and a TGI (CAKI-1 renal) greater than 100 µM. The GI50 (CCRF-CEM leukemia) was 0.2 µM, the TGI (CCRF-CEM leukemia) was 21 µM and the GI50 (COLO 205 colon) was 1.05 µM. The TGI (COLO 205 colon) was 13.4 µM, the GI50 (DU-145 prostate) was 0.325 µM and the TGI (DU-145 prostate) was 12.7 µM. The GI50 (EKVX NSCLC) was 6.43 µM, the TGI (EKVX NSCLC) was 74.4 µM and the GI50 (HCC-2998 colon) was 1.5 µM. The TGI (HCC-2998 colon) was 6.82 µM, the GI50 (HCT-116 colon) was 0.612 µM and the TGI (HCT-116 colon) was 10.3 µM. For the same compound, the GI50 (HCT-15 colon) was 9.43 µM, the TGI (HCT-15 colon) was greater than 100 µM and the GI50 (HL-60(TB) leukemia) was 0.159 µM. For the same compound, the TGI (HL-60(TB) leukemia) was 0.873 µM, the GI50 (HOP-62 NSCLC) was 0.408 µM and the TGI (HOP-62 NSCLC) was 8.53 µM. It also gave a GI50 (HOP-92 NSCLC) of 0.319 µM, a TGI (HOP-92 NSCLC) of 7.59 µM and a GI50 (HS 578T breast) of 1.97 µM. For the same compound, the TGI (HS 578T breast) was 13.6 µM, the GI50 (HT29 colon) was 0.709 µM and the TGI (HT29 colon) was 11.6 µM. The GI50 (IGROV1 ovarian) was 1.8 µM, the TGI (IGROV1 ovarian) was 33 µM and the GI50 (K-562 leukemia) was 2.49 µM. For the same compound, the TGI (K-562 leukemia) was 16.6 µM, the GI50 (KM12 colon) was 1.71 µM and the TGI (KM12 colon) was 10.7 µM. It also gave a GI50 (LOX IMVI melanoma) of 0.276 µM, a TGI (LOX IMVI melanoma) of 2.34 µM and a GI50 (M14 melanoma) of 0.847 µM. For the same compound, the TGI (M14 melanoma) was 12.3 µM, the GI50 (MALME-3M melanoma) was 0.571 µM and the TGI (MALME-3M melanoma) was 10.5 µM. The GI50 (MCF7 breast) was 0.0567 µM, the TGI (MCF7 breast) was 10.7 µM and the GI50 (MDA-MB-231 breast) was 3.06 µM. It also gave a TGI (MDA-MB-231 breast) of 16.2 µM, a GI50 (MDA-MB-435) of 3.36 µM and a TGI (MDA-MB-435) of 16.4 µM. For the same compound, the GI50 (MOLT-4 leukemia) was 0.0557 µM, the TGI (MOLT-4 leukemia) was 23.5 µM and the GI50 (NCI-H226 lung) was 0.19 µM. For the same compound, the TGI (NCI-H226 lung) was 0.789 µM, the GI50 (NCI-H23 lung) was 0.513 µM and the TGI (NCI-H23 lung) was 3.09 µM. The GI50 (NCI-H460 lung) was 0.0609 µM, the TGI (NCI-H460 lung) was 1.51 µM and the GI50 (NCI-H522 lung) was 0.302 µM. The TGI (NCI-H522 lung) was 3.22 µM, the GI50 (NCI/ADR-RES ovarian) was 56.6 µM and the TGI (NCI/ADR-RES ovarian) was greater than 100 µM. The GI50 (OVCAR-3 ovarian) was 2.5 µM, the TGI (OVCAR-3 ovarian) was 36.3 µM and the GI50 (OVCAR-4 ovarian) was 2.96 µM. For the same compound, the TGI (OVCAR-4 ovarian) was 20.3 µM, the GI50 (OVCAR-5 ovarian) was 1.43 µM and the TGI (OVCAR-5 ovarian) was 24.8 µM. It also gave a GI50 (OVCAR-8 ovarian) of 0.911 µM, a TGI (OVCAR-8 ovarian) of 10.8 µM and a GI50 (PC-3 prostate) of 2.03 µM. It also gave a TGI (PC-3 prostate) of 17.2 µM, a GI50 (RPMI-8226 leukemia) of 0.343 µM and a TGI (RPMI-8226 leukemia) of 6.76 µM. It also gave a GI50 (RXF 393 renal) of 0.97 µM, a TGI (RXF 393 renal) of 4.64 µM and a GI50 (SF-268 CNS) of 0.584 µM. The TGI (SF-268 CNS) was 13.5 µM, the GI50 (SF-295 CNS) was 0.445 µM and the TGI (SF-295 CNS) was 11.3 µM. The GI50 (SF-539 CNS) was 0.365 µM, the TGI (SF-539 CNS) was 5.06 µM and the GI50 (SK-MEL-2 melanoma) was 3.28 µM. The TGI (SK-MEL-2 melanoma) was 15.9 µM, the GI50 (SK-MEL-28 melanoma) was 3.36 µM and the TGI (SK-MEL-28 melanoma) was 17 µM. It also gave a GI50 (SK-MEL-5 melanoma) of 0.362 µM, a TGI (SK-MEL-5 melanoma) of 2.31 µM and a GI50 (SK-OV-3 ovarian) of 0.644 µM. For the same compound, the TGI (SK-OV-3 ovarian) was 19.8 µM, the GI50 (SN12C renal) was 0.275 µM and the TGI (SN12C renal) was 18 µM. The GI50 (SNB-19 CNS) was 0.273 µM, the TGI (SNB-19 CNS) was 11.3 µM and the GI50 (SNB-75 CNS) was 0.684 µM. It also gave a TGI (SNB-75 CNS) of 10.1 µM, a GI50 (SR leukemia) of 0.0614 µM and a TGI (SR leukemia) of 12.7 µM. It also gave a GI50 (SW-620 colon) of 0.312 µM, a TGI (SW-620 colon) of 12.8 µM and a GI50 (T-47D breast) of 0.449 µM. For the same compound, the TGI (T-47D breast) was 9.31 µM, the GI50 (U251 CNS) was 0.251 µM and the TGI (U251 CNS) was 2.47 µM. The GI50 (UACC-257 melanoma) was 2.53 µM, the TGI (UACC-257 melanoma) was 18.5 µM and the GI50 (UACC-62 melanoma) was 0.326 µM. It also gave a TGI (UACC-62 melanoma) of 2.9 µM, a GI50 (UO-31 renal) of 5.4 µM and a TGI (UO-31 renal) of 27.5 µM.
